Source: patent US20050209278A1, “Piperidinyl- and piperazinyl-sulfonylmethyl hydroxamic acids and their use as protease inhibitors” (priority 2002, published 2005)

What was measured:
Format in all cases: biochemical
MMP-9 = target: T1, MMP-9 (Homo sapiens, UniProt P14780); assay: MMP-9 inhibition (in vitro Ki); details: Table 9; read-out: MMP-9 Ki (IC-50)
T1 construct: made in house; host or cells: MMP-9-transfected HT1080 cells (spent media)

MMP-1 = target: T2, MMP-1 (Homo sapiens, UniProt P03956); assay: MMP-1 inhibition (in vitro Ki); details: Table 9; read-out: MMP-1 Ki (IC-50)
T2 construct: made in house; host or cells: MMP-1-transfected HT-1080 cells (spent media)
T2 sequence (P03956 100-469): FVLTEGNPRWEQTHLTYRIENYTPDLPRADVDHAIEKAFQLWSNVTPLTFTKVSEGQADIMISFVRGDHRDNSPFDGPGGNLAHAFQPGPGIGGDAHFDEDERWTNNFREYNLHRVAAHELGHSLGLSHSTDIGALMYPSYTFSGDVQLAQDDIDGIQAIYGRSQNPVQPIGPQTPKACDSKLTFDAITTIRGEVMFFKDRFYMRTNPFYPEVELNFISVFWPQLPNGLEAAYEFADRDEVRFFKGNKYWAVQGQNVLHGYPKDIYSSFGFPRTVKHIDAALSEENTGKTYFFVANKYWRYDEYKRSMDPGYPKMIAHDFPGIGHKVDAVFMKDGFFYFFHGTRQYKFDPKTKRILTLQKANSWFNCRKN

MMP-2 = target: T3, MMP-2 (Homo sapiens, UniProt P08253); assay: MMP-2 inhibition (in vitro Ki); details: Table 9; read-out: MMP-2 Ki (IC-50)
T3 construct: made in house; host or cells: MMP-2-transfected p2AHT2 cells
T3 sequence (P08253 110-660): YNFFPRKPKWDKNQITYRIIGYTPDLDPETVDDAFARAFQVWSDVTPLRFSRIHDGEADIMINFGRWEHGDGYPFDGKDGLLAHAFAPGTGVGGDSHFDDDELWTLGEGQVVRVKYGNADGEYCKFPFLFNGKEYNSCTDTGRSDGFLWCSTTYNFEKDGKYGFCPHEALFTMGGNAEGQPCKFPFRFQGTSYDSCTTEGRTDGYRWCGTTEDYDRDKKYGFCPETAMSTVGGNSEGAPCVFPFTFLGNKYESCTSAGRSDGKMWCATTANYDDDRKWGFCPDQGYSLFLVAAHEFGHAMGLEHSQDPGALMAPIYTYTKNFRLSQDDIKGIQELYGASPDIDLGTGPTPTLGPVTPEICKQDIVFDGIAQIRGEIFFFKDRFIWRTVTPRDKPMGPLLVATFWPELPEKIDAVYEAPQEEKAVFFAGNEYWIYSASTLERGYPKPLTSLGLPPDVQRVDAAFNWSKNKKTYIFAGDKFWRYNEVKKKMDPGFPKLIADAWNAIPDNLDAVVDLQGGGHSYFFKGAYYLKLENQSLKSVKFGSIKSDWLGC

MMP-13 = target: T4, MMP-13 (Homo sapiens, UniProt P45452); assay: MMP-13 inhibition (in vitro Ki); details: Table 9; read-out: MMP-13 Ki (IC-50)
T4 construct: made in house; host or cells: baculovirus / insect cells

MMP-14 = target: T5, MMP-14 (Homo sapiens, UniProt P50281); assay: MMP-14 inhibition (in vitro Ki); details: Table 9; read-out: MMP-14 Ki (IC-50)
T5 construct: The catalytic domain enzyme was expressed in E. coli inclusion bodies, solubilized in urea; made in house

T1 sequence (P14780 107-707 limits assumed): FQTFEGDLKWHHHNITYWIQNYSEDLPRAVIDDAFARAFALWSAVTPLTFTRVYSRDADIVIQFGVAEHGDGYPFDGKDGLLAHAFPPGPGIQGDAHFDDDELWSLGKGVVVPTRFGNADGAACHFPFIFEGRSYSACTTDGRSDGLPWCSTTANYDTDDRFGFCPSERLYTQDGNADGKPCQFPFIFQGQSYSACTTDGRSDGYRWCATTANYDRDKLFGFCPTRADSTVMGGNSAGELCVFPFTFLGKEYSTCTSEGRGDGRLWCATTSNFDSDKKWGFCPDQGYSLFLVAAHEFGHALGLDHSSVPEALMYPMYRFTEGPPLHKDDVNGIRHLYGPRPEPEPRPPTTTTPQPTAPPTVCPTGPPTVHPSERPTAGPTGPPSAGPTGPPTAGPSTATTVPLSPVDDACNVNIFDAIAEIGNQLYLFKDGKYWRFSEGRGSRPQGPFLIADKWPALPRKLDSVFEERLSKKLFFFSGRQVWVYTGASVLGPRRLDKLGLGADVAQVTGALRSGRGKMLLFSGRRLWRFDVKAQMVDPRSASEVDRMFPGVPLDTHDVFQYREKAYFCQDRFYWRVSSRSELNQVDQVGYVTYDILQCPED

Row | Compound | Ki (MMP-9) | Ki (MMP-1) | Ki (MMP-2) | Ki (MMP-13) | Ki (MMP-14)
1 | CC(C)COc1cnc(C2CCN(S(=O)(=O)C3(C(=O)NO)CCOCC3)CC2)cn1 [Example A132] | 0.45 nM | 7170 nM | 2.29 nM | 1.48 nM | 5290 nM
2 | O=C(NO)C1(S(=O)(=O)N2CCC(c3ccc(C#CCCO)cn3)CC2)CCOCC1 [Example A133] | 1.07 nM | 1900 nM | 0.77 nM | 1.12 nM | 3870 nM
3 | O=C(NO)C1(S(=O)(=O)N2CCC(c3ccc(C#CCc4ccccc4)cn3)CC2)CCOCC1 [Example A134] | 1.25 nM | 1250 nM | 0.65 nM | 0.109 nM | 191 nM
4 | CC(=O)OCCCC#Cc1ccc(C2CCN(S(=O)(=O)C3(C(=O)NO)CCOCC3)CC2)nc1 [Example A135] | 0.48 nM | 2620 nM | 0.31 nM | 0.28 nM | 609 nM
5 | COC(=O)CCCC#Cc1ccc(C2CCN(S(=O)(=O)C3(C(=O)NO)CCOCC3)CC2)nc1 [Example A136] | 2.03 nM | 4300 nM | 0.33 nM | 0.48 nM | 1150 nM
6 | CCCCC#Cc1ccc(C2CCN(S(=O)(=O)C3(C(=O)NO)CCOCC3)CC2)nc1 [Example A137] | 0.32 nM | 1260 nM | 0.37 nM | 0.09 nM | 221 nM
7 | CC(C)CC#Cc1ccc(C2CCN(S(=O)(=O)C3(C(=O)NO)CCOCC3)CC2)nc1 [Example A138] | 0.24 nM | 3440 nM | 0.68 nM | 0.14 nM | 763 nM
8 | CCCC#Cc1ccc(C2CCN(S(=O)(=O)C3(C(=O)NO)CCOCC3)CC2)nc1 [Example A139] | 0.15 nM | 2340 nM | 0.5 nM | 0.17 nM | 401 nM
9 | O=C(CCCCN1CCN(S(=O)(=O)C2(C(=O)NO)CCOCC2)CC1)c1cccc(OC(F)(F)F)c1 [Example A140] | 814 nM | > 10000 nM | 390 nM | 12.5 nM | > 10000 nM
10 | CN(Cc1ccco1)C(=O)CCCC1CCN(S(=O)(=O)C2(C(=O)NO)CCOCC2)CC1 [Example A141] | 348 nM | 6900 nM | 219 nM | 3.4 nM | > 10000 nM
11 | Cc1ccc(N(C)C(=O)CCCC2CCN(S(=O)(=O)C3(C(=O)NO)CCOCC3)CC2)cc1 [Example A142] | 184 nM | > 10000 nM | 358 nM | 66.4 nM | > 10000 nM
12 | CN(C(=O)CCCC1CCN(S(=O)(=O)C2(C(=O)NO)CCOCC2)CC1)c1ccccc1 [Example A143] | 389 nM | > 10000 nM | 686 nM | 50.8 nM | > 10000 nM
13 | CN(C(=O)CCCC1CCN(S(=O)(=O)C2(C(=O)NO)CCOCC2)CC1)C1CCCCC1 [Example A144] | 1520 nM | > 10000 nM | 958 nM | 22.2 nM | > 10000 nM
14 | CCCN(C(=O)CCCC1CCN(S(=O)(=O)C2(C(=O)NO)CCOCC2)CC1)c1ccccc1 [Example A145] | 15.2 nM | > 10000 nM | 26.3 nM | 23 nM | 6520 nM
15 | CN(C(=O)CCCC1CCN(S(=O)(=O)C2(C(=O)NO)CCOCC2)CC1)c1ccc(F)cc1 [Example A146] | 262 nM | > 10000 nM | 344 nM | 31.8 nM | > 10000 nM
16 | CCN(C(=O)CCCC1CCN(S(=O)(=O)C2(C(=O)NO)CCOCC2)CC1)c1ccccc1 [Example A147] | 42.9 nM | > 10000 nM | 76.1 nM | 44.8 nM | > 10000 nM
17 | COC(=O)CCCC1CCN(S(=O)(=O)C2(C(=O)NO)CCOCC2)CC1 [Example A148] | 3.79 nM | 2710 nM | 6.67 nM | 5.21 nM | 1730 nM
18 | COCCOc1ccc(C2CCN(S(=O)(=O)C3(C(=O)NO)CCOCC3)CC2)nc1 [Example A149] | 7.04 nM | > 10000 nM | 4.42 nM | 2.63 nM | 6550 nM
19 | O=C(CCCCN1CCN(S(=O)(=O)C2(C(=O)NO)CCOCC2)CC1)c1ccc(OC(F)(F)F)cc1 [Example A150] | 1030 nM | > 10000 nM | 243 nM | 19.8 nM | > 10000 nM
20 | O=C(NO)C1(S(=O)(=O)N2CCC(c3cnc(OCC4CC4)cn3)CC2)CCOCC1 [Example A151] | 0.72 nM | > 10000 nM | 1.34 nM | 1.53 nM | 3100 nM
21 | CC(F)(F)Cc1ccc(C2CCN(S(=O)(=O)C3(C(=O)NO)CCOCC3)CC2)nc1 [Example A152] | 9.85 nM | > 10000 nM | 2.36 nM | 5.25 nM | 4330 nM
22 | O=C(NO)C1(S(=O)(=O)N2CCC(OCCCn3nnc(-c4ccc(OC(F)(F)F)cc4)n3)CC2)CCOCC1 [Example A153] | 1910 nM | > 10000 nM | 175 nM | 0.37 nM | > 10000 nM

Now from value to molecule:

Row | Ki (MMP-9) | Ki (MMP-1) | Ki (MMP-2) | Ki (MMP-13) | Ki (MMP-14) | Compound
23 | 9.5 nM | 4550 nM | 3.14 nM | 1.57 nM | > 10000 nM | CCCC(F)(F)c1ccc(C2CCN(S(=O)(=O)C3(C(=O)NO)CCOCC3)CC2)nc1 [Example A156]
24 | 2.94 nM | > 10000 nM | 36.5 nM | 2.54 nM | > 10000 nM | O=C(NO)C1(S(=O)(=O)N2CCC(F)(c3ccc(CCCC(F)(F)F)cn3)CC2)CCOCC1 [Example A157]
25 | 13.4 nM | > 10000 nM | 14.6 nM | 8.98 nM | > 10000 nM | O=C(NO)C1(S(=O)(=O)N2CCC(c3ccc(CCC(F)(F)C(F)(F)F)cn3)CC2)CCN(c2ccc(Cl)cc2)CC1 [Example A158]
26 | 3.99 nM | 1840 nM | 2.65 nM | 1.91 nM | 8580 nM | CCCC(=O)c1ccc(C2CCN(S(=O)(=O)C3(C(=O)NO)CCOCC3)CC2)nc1 [Example A159]
27 | 613 nM | > 10000 nM | 529 nM | 40.9 nM | > 10000 nM | O=C(NO)C1(S(=O)(=O)N2CCC(CCCc3nc(-c4ccc(OC(F)(F)F)cc4)no3)CC2)CCOCC1 [Example A160]
28 | 0.223 nM | 2970 nM | 0.513 nM | 0.474 nM | 1670 nM | O=C(NO)C1(S(=O)(=O)N2CCC(c3ccc(CCC(F)F)cn3)CC2)CCOCC1 [Example A161]
29 | 0.194 nM | 4510 nM | 1.15 nM | 0.301 nM | 2290 nM | O=C(NO)C1(S(=O)(=O)N2CCC(c3ccc(COCC4CC4)cn3)CC2)CCOCC1 [Example A162]
30 | 1630 nM | 1490 nM | 225 nM | 2.53 nM | > 10000 nM | CN(C(=O)CCCCC1CCN(S(=O)(=O)C2(C(=O)NO)CCOCC2)CC1)c1ccc(OC(F)(F)F)cc1 [Example A163]
31 | 2970 nM | > 10000 nM | 63 nM | 42.2 nM | > 10000 nM | CCS(=O)(=O)c1ccc(N2CCN(S(=O)(=O)C3(C(=O)NO)CCOCC3)CC2)cc1 [Example A164]
32 | 0.979 nM | > 10000 nM | 1.67 nM | 0.647 nM | 7210 nM | O=C(NO)C1(S(=O)(=O)N2CCC(c3ccc(CCC(F)(F)C(F)(F)F)cn3)CC2)CCN(c2cccnc2)CC1 [Example A165]
